Measurements as given in US8058243B2, “Method for treating a brain cancer with ifenprodil” (HSC Research and Development Limited Partnership, priority 2006, dated 2011).
Structures can show the parent of a compound that is named as a salt. Where two headings read alike, the source gives them in different places.

Tested on: murine neural precursor cells (neurosphere cultures)
Test: HTS of LOPAC library against secondary neurosphere cultures, MTT proliferation assay at 3 μM, day 7 (z score, P value)
Assay type: cell-based, mouse
[1] = LOPAC primary screen, neurosphere MTT proliferation, 3 μM, day 7
[2] = yes = significantly inhibited neurosphere proliferation (P<0.01) in the primary screen
[3] = LOPAC screen, neurosphere MTT proliferation, 3 μM, day 7
[4] = yes/no: significantly inhibited neurosphere proliferation (P<0.01) in primary screen
[5] = LOPAC library screen, 3 μM, MTT, neurosphere cultures
[6] = yes/no: significantly inhibited neurosphere proliferation (P<0.01) in the primary screen
[7] = LOPAC library screen at 3 μM, secondary neurosphere cultures, MTT
[8] = primary LOPAC screen, 3 μM, MTT, neurosphere proliferation
[9] = yes/no: significantly inhibited neurosphere proliferation in the primary screen
[10] = LOPAC library screen, 3 μM, MTT, secondary neurosphere cultures, day 7
[11] = yes/no: significantly inhibited neurosphere proliferation in primary screen

COCCc1ccc(OCC(O)CNC(C)C)cc1.O=C(O)C(O)C(O)C(=O)O (racemic) [(±)-Metoprolol (+)-tartate]
Z score [1]: −0.269
Activity [2]: no

CCN1CCc2nc(N)oc2CC1.Cl.Cl [B-HT 933 dihydrochloride]
Z Score: −1.28
Z score [3]: −1.280
Activity [4]: no

CCN(CC)CCNC(=O)c1ccc(N)cc1 [Procainamide hydrochloride]
Z Score [5]: 0.6535
Z score [1]: 0.654
Activity [6]: no

N[C@H]1CONC1=O [L-Cycloserine]
Z Score [7]: −0.1552
Z score [8]: −0.155
Activity [9]: no

NC(=O)c1cnccn1 [Pyrazinecarboxamide]
Z Score [10]: −1.617
Z score [1]: −1.617
Activity [11]: no

CNC(=O)OCC[N+](C)(C)C.[Cl-] [Methylcarbamylcholine chloride]
Z Score: 1.913
Z score [1]: 1.913
Activity [2]: no

O=C(O)Cc1c[nH]c2ccc(O)cc12 [5-Hydroxyindolacetic acid]
Z Score [10]: −1.301
Z score [1]: −1.301
Activity [4]: no

CC[N+](CC)(CC)CCOc1cccc(OCC[N+](CC)(CC)CC)c1OCC[N+](CC)(CC)CC [Gallamine triethiodide]
Z Score [7]: −0.9156
Z score [1]: −0.916
Activity [4]: no

CC(C)(C(=O)O)c1ccc(C(O)CCCN2CCC(C(O)(c3ccccc3)c3ccccc3)CC2)cc1 (centres unmarked) [Fexofenadine hydrochloride]
Activity: no
Z Score [7]: −0.7572
Z score [1]: −0.757

CSC(=N)N.CSC(=N)N.O=S(=O)(O)O [S-Methylisothiourea hemisulfate]
Activity: no
Z Score: −0.2111
Z score: −0.211

Cc1[nH]c(=O)c(C#N)cc1-c1ccncc1 [Milrinone]
Z Score [5]: 0.05506
Z score [1]: 0.055
Activity [2]: no

O=[N+]([O-])c1cc(O)c(O)c([N+](=O)[O-])c1 [3,5-Dinitrocatechol]
Z Score: −0.5294
Z score [3]: −0.529
Activity [4]: no

Br.Br.N=C(N)SCCN [2-(2-Aminoethyl)isothiourea dihydrobromide]
Z Score (168 h, 3 µM): −1.251
Z score (168 h, 3 µM): −1.251
Activity [9]: no

CN(C)CCC(c1ccc(Br)cc1)c1ccccn1.O=C(O)/C=C\C(=O)O (single isomer, unassigned; (+)) [(+)-Brompheniramine maleate]
Z Score [10]: −3.976
Z score [1]: −3.976
Activity [6]: yes

CNCCC=C1c2ccccc2CCc2ccccc21 [Nortriptyline hydrochloride]
Z Score [7]: −1.095
Z score [1]: −1.095
Activity [2]: no

CC(C)NCC(O)COc1ccc(CC(N)=O)cc1 (centres unmarked) [(B1)-Atenolol]
Z Score [7]: −0.6583

Br.C=CCN1CCc2cc(O)c(O)cc2C(c2ccccc2)C1 (racemic) [(±)-SKF 38393, N-allyl-, hydrobromide]
Activity: no
Z score [8]: −1.590

N#C/C(=C\c1ccc(O)c(O)c1)C(=O)NCCCNC(=O)/C(C#N)=C/c1ccc(O)c(O)c1 [Tyrphostin AG 537]
Z Score: −1.249
Z score [8]: −1.249
Activity [9]: no

N#C/C(=C\c1ccc(O)c(O)c1)C(=O)N1CCc2ccccc21 [Tyrphostin AG 528]
Z Score [7]: −0.1481
Z score [8]: −0.148
Activity [9]: no

Nc1ccc(N2C(=O)c3ccccc3C2=O)c(Cl)c1 [L-655,708]
Z Score: −0.6132
Z score [1]: −0.613
Activity [4]: no

OC[C@H]1O[C@@H](n2cnc3c(NC4CCCCC4)ncnc32)[C@H](O)[C@@H]1O [N6-Cyclohexyladenosine]
Z Score [10]: −2.883
Z score [1]: −2.883
Activity [6]: yes

O=C1c2c(O)cc(O)cc2OC(c2ccc(O)c(O)c2)C1O (centres unmarked) [(B1)-Taxifolin]
Z Score: 1.321

NC(=O)c1cccc(N)c1 [3-aminobenzamide]
Z Score: −1.034
Z score [1]: −1.034
Activity [11]: no

S(−)-Willardiine
Z Score: 1.251
Z score [8]: 1.251
Activity [9]: no

CCn1c(=O)[nH]c2cc(Cl)c(Cl)cc21 [DCEBIO]
Z Score: 0.8099
Z score [3]: 0.810
Activity [4]: no

JL-18
Z Score: −0.2861
Z score [1]: −0.286
Activity [4]: no

N[C@@H]1CONC1=O [D-Cycloserine]
Z Score [10]: −1.24
Z score [3]: −1.240
Activity [4]: no

NC(=O)C1=CN([C@@H]2O[C@H](COP(=O)([O-])OP(=O)([O-])OC[C@H]3O[C@@H](n4cnc5c(N)ncnc54)[C@H](OP(=O)([O-])[O-])[C@@H]3O)[C@@H](O)[C@H]2O)C=CC1.[Na+].[Na+].[Na+].[Na+] [NADPH tetrasodium]
Z Score [5]: 0.3021
Z score [1]: 0.302
Activity [2]: no

Cc1ccc(=O)n(-c2ccccc2)c1 [Pirfenidone]
Z Score [10]: −1.482
Z score [1]: −1.482
Activity [11]: no

CC[N+](CC)(CC)CCOc1ccc(/C=C/c2ccccc2)cc1 [MG 624]
Z Score (168 h, 3 µM): −10.66
Z score (168 h, 3 µM): −10.660
Activity [6]: yes

COc1cc(CC(C)N)c(OC)cc1I.Cl (racemic) [(±)-DOI hydrochloride]
Z score [3]: −1.345
Activity [4]: no

COc1cc(C(O)C(=O)O)ccc1O (racemic) [(±)-Vanillylmandelic acid]
Z score (168 h, 3 µM): −1.811
Activity [4]: no

NC(CCP(=O)(O)O)C(=O)O (centres unmarked) [(B1)-2-Amino-4-phosphonobutyric acid]
Z Score: 1.893

NC[C@@H]1O[C@H](O[C@H]2[C@@H](O)[C@H](O[C@@H]3[C@@H](O)[C@H](N)C[C@H](N)[C@H]3O[C@H]3O[C@H](CO)[C@@H](O)[C@H](O)[C@H]3N)O[C@@H]2CO)[C@H](N)[C@@H](O)[C@@H]1O.O=S(=O)(O)O [Paramomycin sulfate]
Z score [1]: 0.821
Activity [11]: no

NC(N)=Nc1ccc2[nH]c3c(c2c1)C[C@@]1(O)[C@H]2Cc4ccc(O)c5c4[C@@]1(CCN2CC1CC1)[C@H]3O5.O=C(O)C(F)(F)F.O=C(O)C(F)(F)F
Z Score: −0.2037
Z score [1]: −0.204
Activity [4]: no

COc1ccc2c(c1)c(CC(=O)O)c(C)n2Cc1ccc(Cl)cc1 [1-(4-Chlorobenzyl)-5-methoxy-2-methylindole-3-acetic acid]
Z Score [10]: −1.584
Z score [8]: −1.584
Activity [9]: no

CCCN1CCO[C@@H]2c3cc(O)ccc3OC[C@H]21.Cl [S(+)-PD 128,907 hydrochloride]
Z Score: −1.174
Z score [1]: −1.174
Activity [11]: no

C[C@@H]1O[C@@H](O[C@H]2C[C@@H](O)[C@]3(CO)[C@H]4[C@H](O)C[C@]5(C)[C@@H](C6=CC(=O)OC6)CC[C@]5(O)[C@@H]4CC[C@]3(O)C2)[C@H](O)[C@H](O)[C@H]1O [Ouabain]
Z Score [10]: −1.568
Z score [1]: −1.568
Activity [11]: no

N#CC(C#N)=Cc1ccc([N+](=O)[O-])c(O)c1 [Tyrphostin AG 126]
Z Score [7]: −0.4102
Z score [8]: −0.410
Activity [9]: no

O=C(O)c1nn(Cc2ccc(Cl)cc2Cl)c2ccccc12 [Lonidamine]
Z Score [5]: 0.4358
Z score [1]: 0.436
Activity [4]: no

CC1=C(CC(=O)O)c2cc(F)ccc2/C1=C\c1ccc(S(C)(=O)=O)cc1 [Sulindac sulfone]
Z Score: 0.5924
Z score [1]: 0.592
Activity [11]: no

O=C(c1ccc2c(c1)OCCO2)N1CCCCC1 [CX 546]
Z Score: −1.05
Z score [3]: −1.050
Activity [4]: no

Cl.Cl.Clc1cccc(N2CCNCC2)c1
Z Score: 0.9516

CGP 20712A methanesulfonate
Z Score [5]: 0.6491
Z score [3]: 0.649
Activity [4]: no

C=CCN1CC[C@]23c4c5ccc(O)c4O[C@H]2C(=O)CC[C@@]3(O)[C@H]1C5 [Naloxone hydrochloride]
Z Score [10]: −10.14
Z score [1]: −10.137
Activity [6]: yes

O=C(Cc1ccc(Cl)c(Cl)c1)OCCN1CCCC1 [AC 915 oxalate]
Z Score [7]: −0.8903
Z score [1]: −0.890
Activity [6]: no

Cc1nc(N=Nc2cc(S(=O)(=O)[O-])c3cc([N+](=O)[O-])cc(S(=O)(=O)[O-])c3c2)c(COP(=O)([O-])[O-])c(C=O)c1O.[Na+].[Na+].[Na+].[Na+] [PPNDS tetrasodium]
Z Score: −2.067
Z score [1]: −2.067
Activity [11]: no

CC(C)OC(=O)C(C)(C)Oc1ccc(C(=O)c2ccc(Cl)cc2)cc1 [Fenofibrate]
Z Score [10]: −2.116
Z score [1]: −2.116

CC(C)NCC(O)COc1cccc2[nH]ccc12 (stereo not drawn) [S(−)-Pindolol]
Z score [1]: −1.122
Z score [3]: −0.965
Activity [4]: no
Activity [11]: no

CN(C)CCCN1c2ccccc2CCc2ccc(Cl)cc21 [Clomipramine hydrochloride]
Activity: no
Z Score [7]: −0.8439
Z score [1]: −0.844

Cc1nc2n(c(=O)c1CCN1CCC(c3noc4cc(F)ccc34)CC1)CCCC2 [Risperidone]
Z Score: 1.694
Z score [1]: 1.694
Activity [11]: no

O=C(Nc1cc(C(=O)Nc2ccc(S(=O)(=O)[O-])cc2S(=O)(=O)[O-])cc(C(=O)Nc2ccc(S(=O)(=O)[O-])cc2S(=O)(=O)[O-])c1)Nc1cc(C(=O)Nc2ccc(S(=O)(=O)[O-])cc2S(=O)(=O)[O-])cc(C(=O)Nc2ccc(S(=O)(=O)[O-])cc2S(=O)(=O)[O-])c1.[Na+].[Na+].[Na+].[Na+].[Na+].[Na+].[Na+].[Na+] [NF449 octasodium salt]
Z Score: 1.851
Z score [1]: 1.851
Activity [2]: no
